Residue numbers refer to the chain shown, from its start. ≈ marks a conversion by molar mass, not a printed value. Entries after “also recorded” stand apart in the source; their conditions may differ. Where two headings read alike, the source gives them in different places.
Legend:
[1] = target: panel of 44 targets (GPCRs, ion channels, enzymes, transporters, nuclear receptors)
[2] = target: panel of 44 targets (GPCRs, ion channels, enzymes, transporters, nuclear receptors) (Homo sapiens, UniProt P28222); conditions: IC50 (M) Reference Compound (EC50 for agonist)
[3] = tested on: lipid peroxidation in HT-1080 cells; test: C11-BODIPY lipid peroxidation flow cytometry assay; assay type: cell-based, human; conditions: HT-1080 cells, with and without fer-1
HT-1080 cells = test: Cellular dose response assay, HT-1080 with and without Fer-1; assay type: cell-based, human; conditions: for ferroptosis induction / potency in HT-1080 cells, result in words: RSL3 as control; for Selectivity: ferroptosis selectivity, HT1080 + Fer-1 vs HT1080
Summary of the method: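 Viability by CellTiter-Glo luminescence after 48 h exposure at 37 °C, 5% CO2. Compounds ran as 12-point 2-fold series, with or without Fer-1, in triplicate at 0.4% final DMSO, on cells plated at 1500/well the day before; SD from technical triplicates shown.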

HepG2 cells = test: Cellular dose response assay, HepG2; assay type: cell-based, human
Description: HT-1080 (human [Homo sapiens] […] fibrosarcoma), A-673 (human [Homo sapiens] […] Ewing's sarcoma), and SK-HEP-1 (human [Homo sapiens] […] hepatic adenocarcinoma), cells were obtained from ATCC. Huh7 (human [Homo sapiens] […] hepatocellular carcinoma), HLF (human [Homo sapiens] […] hepatocellular carcinoma), HepG2 (human [Homo sapiens] […] hepatocellular carcinoma), cells were obtained from the Cancer Cell Bank at Columbia University Irving Medical Center. HT-1080, A-673, Huh-7, and HLF cells were grown in Dulbecco's Modified Eagle Medium (DMEM) supplemented with 10% heat inactivated fetal bovine serum (HI-FBS), 1% non-essential amino acids, and 1% penicillin streptomycin. HepG2 and SK-HEP-1 cells were grown in Eagle's Minimum Essential Medium (EMEM) supplemented with 10% HI-FBS, and 1% penicillin-streptomycin. All cells were cultured at 37° C. and 5% CO2.
HT-1080, HepG2, Huh7, HLF, and SK-HEP-1 cells were seeded into opaque white 384-well plates at 1500 cells per well then incubated at 37° C. with 5% CO2 overnight. The next day, compounds of interest were dissolved in DMSO and 12-point 2-fold dilution series were prepared with and without Fer-1. Cells were treated in triplicate (final DMSO concentration of 0.4% in all wells, including DMSO-only control wells) and incubated for a further 48 hours at 37° C. and 5% CO2. Cell viability was evaluated using CellTiter-Glo (Promega G7573) and luminescence was recorded on a Victor 5 plate reader. Data were analyzed in GraphPad Prism 9 and error bars represent standard deviation values for three technical replicates in a representative experiment.

GPX4 = target: T1, GPX4 (Homo sapiens, UniProt P36969); test: GPX4 activity assay in cell lysates (NADPH-coupled); assay type: biochemical; parameters: endogenous in cells; host or cells: A-673 cell lysate; conditions: for GPX4% inhibition at 200 (μM): mean ± s.d., n = 3
T1 sequence (P36969 1-170 isoform P36969-2): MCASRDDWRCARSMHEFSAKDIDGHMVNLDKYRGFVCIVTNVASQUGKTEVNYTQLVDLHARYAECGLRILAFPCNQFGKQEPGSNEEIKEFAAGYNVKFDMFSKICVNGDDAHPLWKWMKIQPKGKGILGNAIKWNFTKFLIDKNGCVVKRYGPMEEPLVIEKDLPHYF
Summary of the method: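 Native GPX4 in lysates of A-673 cells grown with 20 nM sodium selenite; lysate preincubated with compound 45 min at 37 °C in pH 8.0 buffer with 3 mM GSH, 0.5 mM NADPH and glutathione reductase. Reaction started with phosphatidylcholine hydroperoxide; NADPH consumption followed at 340 nm over 25 min; triplicates.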

GPX4^U46C = target: T2, GPX4^U46C (Homo sapiens, UniProt P36969, U73C); test: Microscale thermophoresis (MST) binding; conditions: half maximal effective concentration, covalent mechanism
T2 construct: made in house; host or cells: E. coli BL21-Gold (DE3)
T2 sequence (P36969 1-170 isoform P36969-2 U46C): T1 sequence (P36969 1-170 isoform P36969-2) with U46C
Procedure: The bacterial expression vector pET-15b-His-tagged-c-GPX4^U46C was prepared as previously described (Yang et al. 2016). The C-terminal His-tagged GPX4U46C protein was expressed in E. coli and purified according to a protocol modified from Scheerer et al. 2007. First, pET-15b-His-tagged-c-GPX4^U46C was transformed into XL10-Gold (Agilent #200314) E. coli ultracompetent cells for plasmid DNA production and isolated using QIAprep Spin Miniprep Kit (Qiagen). For protein expression, pET-15b-His-tagged-c-GPX4^U46C was then transformed into BL21-Gold (DE3) E. coli competent cells (Agilent #230132) and plated on LB agar with 100 μg/mL ampicillin. A starter culture was inoculated in 7 mL of LB medium with 100 μg/mL ampicillin using a single colony and allowed to grow in a 37° C. shaker (225 rpm) for 16 hours. 3 mL of the starter culture was added to 1 L of LB medium with 100 μg/mL ampicillin, which was then incubated in a 37° C. shaker (225 rpm) to an OD600 of 0.9. At that point, the incubation temperature was reduced to 15° C. and the culture was allowed to equilibrate for 1 hour. Expression of the recombinant enzyme was induced by addition of isopropyl β-D-1-thiogalactopyranoside (IPTG, 1 mM final concentration) overnight for 12-15 hours shaking at 225 rpm and 15° C. The next morning, cells were harvested by centrifugation at 4000 rpm and 4° C. for 20 minutes. The cell pellet was then frozen at −80° C. for at least 1 hour or until lysis. To lyse the cells, the cell pellet was resuspended with 25 mL of chilled lysis buffer (100 mM Tris pH 8.0, 300 mM NaCl, 20 mM imidazole, 3 mM TCEP, and 2.5 mini tablets of complete Protease Inhibitor Cocktail (Roche-Sigma #11836170001)) then lysed using an Emulsiflex C3 high-pressure homogenizer. To remove cell debris, the lysate was subjected to centrifugation at 10000 rpm and 4° C. for 20 minutes. The supernatant was centrifuged once more at the same conditions, then the clarified lysate was applied onto a 5-mL HisTrap HP column (Cytiva #17-5248-01), washed with 90% Buffer A (100 mM Tris pH 8.0, 300 mM NaCl, 5% glycerol, 3 mM TCEP) 10% Buffer B (Buffer A with 500 mM imidazole), then eluted with a continuous gradient (10-100% Buffer B). The protein was concentrated using Amicon Ultra-15 centrifugal filter units with a 10 kDa molecule weight cutoff (EMD Millipore #UFC901024) then further purified by FPLC on a size exclusion HiLoad Superdex 200 column (Cytiva) in crystallization buffer (20 mM Tris pH 8.0, 300 mM NaCl, 3 mM TCEP). The fractions containing 90-95% pure GPX4 protein, as evaluated by SDS-PAGE, were pooled and concentrated using the same Amicon centrifugal filter units as above to 5 mg/mL. Concentration was determined by Nanodrop. Protein was aliquoted into Eppendorf tubes, flash frozen using liquid nitrogen, and stored at −80° C. until use.
MST experiments were conducted using a Monolith NT.115 (Nanotemper Technologies) according to manufacturer instructions. To label the protein, 90 μL of 200 nM GPX4^U46C was combined with 90 μL of 100 nM RED-tris-NTA dye diluted in PBS buffer with 0.05% Tween 20 (PBST buffer). The mixture was incubated for 30 minutes at room temperature, followed by centrifugation for 10 minutes at 4° C. and 15,000×g. To assess binding of the compounds, a 16-point 2-fold dilution series in PBST buffer was prepared and mixed in a 1:1 ratio with the labeled protein solution for a final volume of 20 μL. The reaction mixture was loaded into standard treated capillary tubes and analyzed with the Monolith NT.115 at 40% LED power and 40% MST power with a laser-on time of 5 seconds. The data were analyzed in MO.Affinity Analysis v2.3 software.

[4] = Kinetic aqueous solubility; conditions: aqueous solubility; Table 9
in vitro [5] = assay type: in vitro ADME, mouse; conditions: mouse, microsomes
Procedure: (§1) […]. The incubation timepoints measured were 0, 5, 10, 15, 30, and 45 minutes. All samples were prepared in duplicate and analyzed by LC-MS/MS.

[6] = not given; remark: listed apart in the source
in vitro [7] = assay type: in vitro ADME, human; conditions: human, microsomes
Procedure: as §1

[8] = target: panel of 44 targets (GPCRs, ion channels, enzymes, transporters, nuclear receptors) (Homo sapiens, UniProt P08913); conditions: Adrenergic a2A; RL [3H]-RX821002 5 nM; read-out: IC50 (M) Reference Compound (EC50 for agonist)
[9] = read-out: IC50 (M) Reference Compound (EC50 for agonist)
[10] = HT1080 + Fer-1, read-out: IC50 (uM) HT1080 + Fer-1
[11] = HT1080, without Fer-1, read-out: IC50 (uM) HT1080

panel of 44 targets (GPCRs, ion channels, enzymes, transporters, nuclear receptors) (Homo sapiens, UniProt P28222), sequence (P28222 whole entry, looked up): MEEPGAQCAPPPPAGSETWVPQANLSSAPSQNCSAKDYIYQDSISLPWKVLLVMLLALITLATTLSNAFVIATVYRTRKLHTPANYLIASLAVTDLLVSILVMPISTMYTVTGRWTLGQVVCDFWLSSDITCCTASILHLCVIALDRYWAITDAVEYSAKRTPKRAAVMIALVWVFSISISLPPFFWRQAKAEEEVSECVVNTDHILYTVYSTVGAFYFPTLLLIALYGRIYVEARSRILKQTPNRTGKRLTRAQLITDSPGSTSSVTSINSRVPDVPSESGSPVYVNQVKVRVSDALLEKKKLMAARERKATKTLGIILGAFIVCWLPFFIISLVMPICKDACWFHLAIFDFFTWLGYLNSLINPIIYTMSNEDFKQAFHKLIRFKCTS
panel of 44 targets (GPCRs, ion channels, enzymes, transporters, nuclear receptors) (Homo sapiens, UniProt P08913), sequence (P08913 whole entry): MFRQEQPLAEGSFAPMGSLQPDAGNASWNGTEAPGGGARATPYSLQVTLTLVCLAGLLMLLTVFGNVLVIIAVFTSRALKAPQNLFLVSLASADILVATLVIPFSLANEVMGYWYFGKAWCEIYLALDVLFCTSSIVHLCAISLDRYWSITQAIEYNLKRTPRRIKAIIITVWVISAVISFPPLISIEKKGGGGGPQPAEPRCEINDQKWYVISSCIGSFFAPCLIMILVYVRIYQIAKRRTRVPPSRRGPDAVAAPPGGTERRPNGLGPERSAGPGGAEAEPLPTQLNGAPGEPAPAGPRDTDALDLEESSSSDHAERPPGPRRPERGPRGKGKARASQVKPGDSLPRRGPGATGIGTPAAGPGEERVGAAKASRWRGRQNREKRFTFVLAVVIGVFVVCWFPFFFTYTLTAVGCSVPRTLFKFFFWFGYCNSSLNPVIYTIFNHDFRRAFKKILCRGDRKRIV

Clc1ccc(C2CC3CCC2N3)cn1 (stereo not shown) [Epibatidine]
EC50 [1, 9]: 2.5e-09 M

COc1ccc(NC(=O)c2ccc(-c3ccncc3)c(C)c2)cc1N1CCN(C)CC1 [GR125743]
IC50 [2]: 1.49e-08 M

C[C@]12N[C@H](Cc3ccccc31)c1ccccc12 [MK-801]
IC50 [1, 9]: 2.75e-08 M

CNC1(C)C2CCC(C2)C1(C)C (stereo not shown) [Mecamylamine]
IC50 ([1]; read-out: IC50 (M) Reference Compound): 8.31e-07 M | IC50 [1, 9]: 6.8e-07 M

Cn1c(C(=O)n2ccnc2)cc2ccccc21 [QW-057]
lipid peroxidation (C11-BODIPY), result in words [3]: did not induce lipid peroxidation | ferroptosis induction / potency in HT-1080 cells, result in words (HT-1080 cells): no fer-1 rescue was observed | IC50 (HT-1080 cells; compounds alone, read-out: IC50 (μM) HT1080^a): 64 µM | IC50 (HT-1080 cells; compounds and fer-1 1.0 μM, read-out: IC50 (μM) HT1080^b): 64.2 µM | IC50 (HepG2 cells; compounds alone, read-out: IC50 (μM) HEPG2^a): 97.7 µM | IC50 (HepG2 cells; compounds and fer-1 1.0 μM, read-out: IC50 (μM) HEPG2^b): 82.6 µM | fold increase in GPX4 inhibitory activity in comparison to LOC1886 (GPX4; 200 uM): ~2 fold | GPX4% inhibition at 200 (μM) (GPX4): 59.8 ± 12.5%

COc1cccc2[nH]c(C(=O)NC(C)(C)COC(=O)CCl)cc12 [QW-144]
EC50 (GPX4^U46C): 836 nM | GPX4% inhibition at 200 (μM) (GPX4; generation 1): 50.0 ± 32.5%

Cc1ccc2[nH]c(C(=O)NC(C)(C)COC(=O)CCl)cc2c1 [QW-155]
EC50 (GPX4^U46C): 473000 nM | GPX4% inhibition at 200 (μM) (GPX4; generation 1): 50.9 ± 3.6%

CC(C)(COC(=O)CCl)NC(=O)c1cc2cc(Cl)ccc2[nH]1 [QW-164]
EC50 (GPX4^U46C): 2100 nM | GPX4% inhibition at 200 (μM) (GPX4; generation 1): 53.3 ± 37.8%

Cn1nc(C(=O)NC(C)(C)COC(=O)CCl)c2ccc(-c3ccc(N4CCOCC4)c(Cl)c3)cc21 [QW-562]
Plasma Stability t1/2 (min) human (Plasma stability, human): 7.4 min | Plasma Stability t1/2 (min) mouse (Plasma stability, mouse): 5.3 min | IC50 (HT-1080 cells; [10]): 7.2 µM | IC50 (HT-1080 cells; [11]): 1.1 µM | Selectivity (HT-1080 cells): 6.5 | Solubility [4]: 7.8 µM (≈ 4.05 µg/mL) | GPX4 inhibitory activity, result in words (GPX4): slightly higher potencies than their parent compound | GPX4% inhibition at 2.5 μM (GPX4): 77.6 ± 12.0% | GPX4% inhibition at 5 μM (GPX4; 5 μM): 95.8 ± 2.0%

Cn1nc(C(=O)NC(C)(C)CNC(=O)CCl)c2ccc(Br)cc21 [QW-624]
Microsome Stability t1/2 (min) mouse (in vitro [5]): 1.2 min | Plasma Stability t1/2 (min) human: 142 min | lipid peroxidation (C11-BODIPY), result in words [3]: still active in lipid peroxidation assay | Plasma Stability t1/2 (min) mouse [6]: 685 min | Microsome Stability t1/2 (min) human (in vitro [7]): 8.8 min | GPX4% inhibition at 2.5 μM (GPX4; generation 2): −9.6 ± 4.4%

CCOc1ccc(-c2ccc3c(C(=O)NC(C)(C)COC(=O)CCl)nn(C)c3c2)cc1Cl [QW-655]
Plasma Stability t1/2 (min) human (Plasma stability, human): 16.8 min | Plasma Stability t1/2 (min) mouse (Plasma stability, mouse): 2.6 min | IC50 (HT-1080 cells; [10]): 15.6 µM | IC50 (HT-1080 cells; [11]): 0.7 µM | ferroptosis induction / potency in HT-1080 cells, result in words (HT-1080 cells): sub-micromolar GI50 value; also recorded: sub-molar range cellular activities and decreased ferroptosis selectivity | Selectivity (HT-1080 cells): 22.3 | GPX4 inhibitory activity, result in words (GPX4): greatest potency; also recorded: slightly higher potencies than their parent compound | GPX4% inhibition at 2.5 μM (GPX4): 106.9 ± 5.6%

COC1(C2=NCCN2)COc2ccccc2O1 (stereo not shown) [RX821002]
IC50 [8]: 8.51e-09 M
